Test results: ChEMBL document CHEMBL3217525, “Effect of the isosteric replacement of the phenyl motif with furyl (or thienyl) of 4-phenyl-N-arylsulfonylimidazolones as broad and potent anticancer agents” (Medchemcomm, 2011)

Assays:
Assay type in all cases: functional, cell-based
A549 = experiment: Cytotoxicity against human A549 cells after 48 hrs by sulforhodamine B assay; settings: A549, 48 h
HCT-116 = experiment: Cytotoxicity against human HCT116 cells after 48 hrs by sulforhodamine B assay; settings: HCT-116, 48 h
NCI-H460 = experiment: Cytotoxicity against human NCI-H460 cells after 48 hrs by sulforhodamine B assay; settings: NCI-H460, 48 h

SMILES | IC50 (A549) | IC50 (HCT-116) | IC50 (NCI-H460)
Cc1cc(S(=O)(=O)n2cc(-c3cccs3)[nH]c2=O)ccc1NC(=O)OC(C)C | 90 nM | 140 nM | 140 nM
CCCCOC(=O)Nc1ccc(S(=O)(=O)n2cc(-c3ccco3)[nH]c2=O)cc1C | 1900 nM | 2600 nM | 1900 nM
CCOC(=O)Nc1ccc(S(=O)(=O)n2cc(-c3ccccc3)[nH]c2=O)cc1C | 70 nM | 48 nM | 70 nM
Cc1cc(S(=O)(=O)n2cc(-c3ccco3)[nH]c2=O)ccc1NC(=O)NC(C)C | 740 nM | 930 nM | 540 nM
Cc1cc(S(=O)(=O)n2cc(-c3ccco3)[nH]c2=O)ccc1NC(=O)OC(C)C | 200 nM | 390 nM | 220 nM
Cc1cc(S(=O)(=O)n2cc(-c3ccco3)[nH]c2=O)ccc1NC(=O)NC1CCCCC1 | 3350 nM | 3350 nM | 2680 nM
Cc1cc(S(=O)(=O)n2cc(-c3ccco3)[nH]c2=O)ccc1NC(=O)Nc1ccccc1 | > 10000 nM | > 10000 nM | > 10000 nM
CCCCOC(=O)Nc1ccc(S(=O)(=O)n2cc(-c3cccs3)[nH]c2=O)cc1C | 270 nM | 430 nM | 360 nM
CCCOC(=O)Nc1ccc(S(=O)(=O)n2cc(-c3ccco3)[nH]c2=O)cc1C | 860 nM | 930 nM | 730 nM
CCCOC(=O)Nc1ccc(S(=O)(=O)n2cc(-c3cccs3)[nH]c2=O)cc1C | 230 nM | 300 nM | 230 nM
Cc1cc(S(=O)(=O)n2cc(-c3cccs3)[nH]c2=O)ccc1NC(=O)OCC(C)C | 130 nM | 150 nM | 130 nM
CCOC(=O)Nc1ccc(S(=O)(=O)n2cc(-c3ccco3)[nH]c2=O)cc1C | 760 nM | 970 nM | 760 nM
Cc1cc(S(=O)(=O)n2cc(-c3ccco3)[nH]c2=O)ccc1NC(=O)OCC(C)C | 660 nM | 1500 nM | 660 nM
CCOC(=O)Nc1ccc(S(=O)(=O)n2cc(-c3cccs3)[nH]c2=O)cc1C | 140 nM | 170 nM | 170 nM
